These results are taken from publication PMC4038709 (Bioorganic & medicinal chemistry, 2014).

Molecules are shown by their SMILES.

For the first experiment, the target named is T1, SET7 (Homo sapiens, UniProt Q8WTS6).
T1 sequence (Q8WTS6 52-366): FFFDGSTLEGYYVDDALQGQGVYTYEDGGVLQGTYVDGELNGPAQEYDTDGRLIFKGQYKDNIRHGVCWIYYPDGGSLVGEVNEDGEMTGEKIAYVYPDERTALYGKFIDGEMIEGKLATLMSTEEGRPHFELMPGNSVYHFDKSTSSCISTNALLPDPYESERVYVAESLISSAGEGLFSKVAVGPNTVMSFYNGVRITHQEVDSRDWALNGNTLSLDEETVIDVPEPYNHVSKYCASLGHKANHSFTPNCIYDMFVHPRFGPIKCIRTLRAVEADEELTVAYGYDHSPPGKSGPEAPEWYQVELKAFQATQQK
Put plainly: SET7 ELISA methylation assay. Format: biochemical. The conditions noted are these: comparison with parent analog, ELISA 40 µM (Fig. 3).
As to `O=C(O)c1cccc(SCc2cccc(-n3ccc4cc(Br)ccc43)c2)c1` [Compound 11, 3-(3-(5-bromo-1H-indol-1-yl)benzylthio)benzoic acid], the “relative potency against SET7 (SAR, in words)” value (shortened to “relative potency against SET7”) is “more potent inhibitors of SET7 than 7”.
On to `O=C(O)CCCSCc1cccc(-n2ccc3cc(Br)ccc32)c1` [Compound 10, 4-(3-(5-bromo-1H-indol-1-yl)benzylthio)butanoic acid], for which the “relative potency against SET7” value is reported as “more potent inhibitors of SET7 than 7”.
For the compound `O=C(O)c1cccc(SCc2cccc(-n3ccc4c(Br)cccc43)c2)c1` [Compound 12, 3-(3-(4-bromo-1H-indol-1-yl)benzylthio)benzoic acid], the “relative potency against SET7” value is recorded as “increased potency”.
On to `O=C(O)c1cccc(SCc2cccc(-n3ccc4c(-c5ccccc5)cccc43)c2)c1` [Compound 13, 3-(3-(4-phenyl-1H-indol-1-yl)benzylthio)benzoic acid], for which the “relative potency against SET7” value is on record as “even more effective”.
Regarding `O=C(O)c1ccc(-c2cccc3c2ccn3-c2cccc(CNc3cccc(C(=O)O)c3)c2)cc1` [Compound 15, 3-(3-(4-(4-carboxyphenyl)-1H-indol-1-yl)benzylamino)benzoic acid], the “relative potency against SET7” value is on record as “greatly suppressed activity”.

Staying with this experiment, now noted: read-out: inhibition of SET7.
The inhibition is the drop in the measured response relative to a control, in per cent. For `O=C(O)c1cccc(NCc2cccc(-n3ccc4c(-c5ccccc5)cccc43)c2)c1` [Compound 14, 3-(3-(4-phenyl-1H-indol-1-yl)benzylamino)benzoic acid], the inhibition at 40 µM is 50 to 60%.
Still for that read-out and setting: for `O=C(O)c1cccc(SCc2cccc(-n3ccc4c(-c5ccccc5)cccc43)c2)c1` [Compound 13, 3-(3-(4-phenyl-1H-indol-1-yl)benzylthio)benzoic acid] the value was 50 to 60%.

The target of another experiment is T1, SET7. Kind of experiment: SET7 scintillation proximity assay. It counts as biochemical. The conditions noted are these: SPA, 50 µM and 15 µM inhibitor, comparison with 19 (Fig. 4).
Take `O=C(O)c1cccc(NCc2ccc(-n3ccc4c(-c5ccc(C(F)(F)F)cc5)ncnc43)s2)c1` [Compound 26]: the “relative potency against SET7” value is recorded as “reduced inhibitor potency”.
For `O=C(O)c1cccc(CNc2cccc(-n3ccc4c(-c5ccc(C(F)(F)F)cc5)ncnc43)c2)c1` [Compound 25], the “relative potency against SET7” value is listed as “reduced inhibitor potency”.
